Test results from patent EP0555116B1, “Compositions based on antiseptics and their applications” (HUTCHINSON, priority 1992, dated 1993).
Where “and” joins values, the source holds several entries; their conditions need not be identical. Identical values can stand only once.

Columns and labels:
[1] = tested on: antigène du virus de l'hépatite B (AgHBs); assay: In vitro degradation of hepatitis B virus antigen (AgHBs): virucide + patient human serum (1/1000); type: biochemical; details: Bardac® 0,2 %
Description: I - Action sur la dégradation in vitro de l'antigène du virus de l'hépatite B (AgHBs) du virus de l'hépatite B : virucide + sérum humain de malade (1/1000ème).

virus HBV = assay: In vivo protection test in ducks (I.V.), inoculum 2.10^7 vge/canard; details: Bardac® 0,1 %, voie I.V.
Description: II - Essais in vivo chez le canard (voie I.V.).
• Bardac® 0,02 % (dose 100 fois inférieure à celle qui est efficace in vitro pour le Bardac® seul) - CHG 0,025 % contre un inoculum à 2.10^7 vge/canard protège 3/3 canards (figure 2). • Bardac® 0,1 % (dose 5 fois plus forte que dans une composition conforme à l'invention pour obtenir une protection équivalente) contre un inoculum à 2.10^7 vge/canard (vge = viral genoma equivalent) protège 4/4 canards (figure 3).
La figure 1 correspond à un témoin d'infection : 4/4 canards inoculés avec 2.10^7 vge développent une virémie dont le pic se situe entre 5 et 10 jours.

[2] = tested on: Herpès virus Hominis type 1, souche Bey (HSV1); assay: Immediate virucidal action on HSV1, plaque count on Vero cells; type: cell-based; details: Bardac® 0,02 %; 3 boîtes de culture; J4
Procedure: Il s'agit d'une souche d'Herpès virus Hominis type 1, souche Bey (HSV1), elle est entretenue sur cellules fibroblastiques humaines ou sur cellules KB et a subi un nombre de passages importants, sur l'un ou l'autre type de cellules.
On utilise un lot viral congelé à -80°C après obtention d'un effet cytopathique ayant atteint au moins 80 % des cellules, sans une centrifugation préalable, qui aurait débarrassé l'inoculum de la majorité des débris cellulaires; en effet, il apparaît que l'infectivité du virus disparaît très rapidement lorsqu'il est extracellulaire, et, en conséquence, on est plus près de la réalité de l'infection in vivo lorsqu'on utilise un lot viral dans lequel des virions peuvent encore se trouver dans des débris cellulaires.
Ce lot a été titré, après répartition en aliquots de 0,5 ml, conservés à -80°C, sur cellules fibroblastiques humaines : • . par dilution de 10 en 10 et inoculations de 8 tubes de cultures par dilution : 10^6/ml; • . par inoculation de cultures en boîtes de Pétri (35 mm) et adjonction de sérum anti-HSV1 dans le surnageant pour neutraliser les virions qui pourraient être libérés dans le milieu liquide, permettant ainsi de compter des plages : 100 à 150 unités formant plages par boîte inoculée avec 0,5 ml d'une solution virale diluée à 10^-4. […]

[3] = tested on: Candida albicans ATCC 1031; assay: Disinfection time test (Essai 2, Tables D-F), reaction at 22°, subcultures 72 h at 37°C; type: cell-based
Procedure: Un autre essai a été réalisé à partir des solutions suivantes : • 100 ml d'une solution à 0,1 % de digluconate de chlorhexidine (pH 6) et • 100 ml d'une solution à 0,1 % de Bardac 22®.
Les tests ont été réalisés conformément au protocole décrit dans le Chapitre I/2.1 et 2.2 de Richtlinien für die Prüfung und Bewertung chemischer Desinfektionsverfahren der DGHM, Stand 1.1., 1981).
Les tests dont les résultats sont illustrés aux Tableaux D, E et F ont été réalisés à une température de réaction de 22° avec une incubation des sous-cultures 72 heures à 37°C avec comme substances inactivantes : Tween® 80 3 % + saponine 3 % + cystéine 0,1 % + histidine 0,1 %; ces Tableaux illustrent respectivement l'activité bactéricide et fongicide d'une solution aqueuse à 0,1 % de digluconate de chlorhexidine, d'une solution aqueuse à 0,1 % de Bardac 22® et d'un mélange à part égale des deux composés et montrent l'action des antiseptiques précités, en fonction du temps de contact, et font apparaître la même synergie d'action de l'association que ci-dessus, dans la mesure où l'association des deux composés permet de diminuer significativement leur concentration, pour l'obtention d'un même effet. TABLEAU D

CCCCCCCCCC[N+](C)(C)CCCCCCCCCC [Bardac®, chlorure de didécyldiméthylammonium]
AgHBs résiduel (ratio) [1]: 1,35
canards protégés (virus HBV): 4/4
Nombre d'unités formant plage par millilitre de virus dilué à 10^-4 [2]: 30/125/45 and 26/17/20
croissance ([3]; Conc. 0,1 % (vol/vol), 1 min): +
croissance ([3]; Conc. 0,1 % (vol/vol), 3 min): +
croissance ([3]; Conc. 0,1 % (vol/vol), 5 min): +
croissance ([3]; Conc. 0,1 % (vol/vol), 15 min): +
croissance ([3]; Conc. 0,1 % (vol/vol), 30 min): +
croissance ([3]; Conc. 0,1 % (vol/vol), 60 min): +
croissance ([3]; Conc. 0,05 % (vol/vol), 1 min): +
croissance ([3]; Conc. 0,5 % (vol/vol), 1 min): +
croissance ([3]; Conc. 0,05 % (vol/vol), 3 min): +
croissance ([3]; Conc. 0,5 % (vol/vol), 3 min): +
croissance ([3]; Conc. 0,05 % (vol/vol), 5 min): +
croissance ([3]; Conc. 0,5 % (vol/vol), 5 min): +
croissance ([3]; Conc. 0,05 % (vol/vol), 15 min): +
croissance ([3]; Conc. 0,5 % (vol/vol), 15 min): +
croissance ([3]; Conc. 0,05 % (vol/vol), 30 min): +
croissance ([3]; Conc. 0,5 % (vol/vol), 30 min): +
croissance ([3]; Conc. 0,05 % (vol/vol), 60 min): +
croissance ([3]; Conc. 0,5 % (vol/vol), 60 min): +
croissance ([3]; Conc. 1 % (vol/vol), 1 min): +
croissance ([3]; Conc. 1 % (vol/vol), 3 min): +
croissance ([3]; Conc. 1 % (vol/vol), 5 min): +
croissance ([3]; Conc. 1 % (vol/vol), 15 min): +
croissance ([3]; Conc. 1 % (vol/vol), 30 min): -
croissance ([3]; Conc. 1 % (vol/vol), 60 min): -
croissance ([3]; Conc. 5 % (vol/vol), 1 min): +
croissance ([3]; Conc. 5 % (vol/vol), 3 min): +
croissance ([3]; Conc. 5 % (vol/vol), 5 min): -
croissance ([3]; Conc. 5 % (vol/vol), 15 min): -
croissance ([3]; Conc. 5 % (vol/vol), 30 min): -
croissance ([3]; Conc. 5 % (vol/vol), 60 min): -
croissance ([3]; Conc. 10 % (vol/vol), 1 min): -
croissance ([3]; Conc. 10 % (vol/vol), 3 min): -
croissance ([3]; Conc. 10 % (vol/vol), 5 min): -
croissance ([3]; Conc. 10 % (vol/vol), 15 min): -
croissance ([3]; Conc. 10 % (vol/vol), 30 min): -
croissance ([3]; Conc. 10 % (vol/vol), 60 min): -
croissance ([3]; Conc. 25 % (vol/vol), 1 min): -
croissance ([3]; Conc. 25 % (vol/vol), 3 min): -
croissance ([3]; Conc. 25 % (vol/vol), 5 min): -
croissance ([3]; Conc. 25 % (vol/vol), 15 min): -
croissance ([3]; Conc. 25 % (vol/vol), 30 min): -
croissance ([3]; Conc. 25 % (vol/vol), 60 min): -

[H]/N=C(\N/C(=N/[H])NCCCCCCNC(=N)NC(=N)Nc1ccc(Cl)cc1)Nc1ccc(Cl)cc1 [Chlorhexidine, digluconate de chlorhexidine, reference compound]
croissance ([3]; Conc. 0,1 % (vol/vol), 1 min): +
croissance ([3]; Conc. 0,1 % (vol/vol), 3 min): +
croissance ([3]; Conc. 0,1 % (vol/vol), 5 min): +
croissance ([3]; Conc. 0,1 % (vol/vol), 15 min): +
croissance ([3]; Conc. 0,1 % (vol/vol), 30 min): +
croissance ([3]; Conc. 0,1 % (vol/vol), 60 min): +
croissance ([3]; Conc. 0,05 % (vol/vol), 1 min): +
croissance ([3]; Conc. 0,5 % (vol/vol), 1 min): +
croissance ([3]; Conc. 0,05 % (vol/vol), 3 min): +
croissance ([3]; Conc. 0,5 % (vol/vol), 3 min): +
croissance ([3]; Conc. 0,05 % (vol/vol), 5 min): +
croissance ([3]; Conc. 0,5 % (vol/vol), 5 min): +
croissance ([3]; Conc. 0,05 % (vol/vol), 15 min): +
croissance ([3]; Conc. 0,5 % (vol/vol), 15 min): +
croissance ([3]; Conc. 0,05 % (vol/vol), 30 min): +
croissance ([3]; Conc. 0,5 % (vol/vol), 30 min): +
croissance ([3]; Conc. 0,05 % (vol/vol), 60 min): +
croissance ([3]; Conc. 0,5 % (vol/vol), 60 min): +
croissance ([3]; Conc. 1 % (vol/vol), 1 min): +
croissance ([3]; Conc. 1 % (vol/vol), 3 min): +
croissance ([3]; Conc. 1 % (vol/vol), 5 min): +
croissance ([3]; Conc. 1 % (vol/vol), 15 min): +
croissance ([3]; Conc. 1 % (vol/vol), 30 min): +
croissance ([3]; Conc. 1 % (vol/vol), 60 min): -
croissance ([3]; Conc. 5 % (vol/vol), 1 min): +
croissance ([3]; Conc. 5 % (vol/vol), 3 min): +
croissance ([3]; Conc. 5 % (vol/vol), 5 min): +
croissance ([3]; Conc. 5 % (vol/vol), 15 min): +
croissance ([3]; Conc. 5 % (vol/vol), 30 min): -
croissance ([3]; Conc. 5 % (vol/vol), 60 min): -
croissance ([3]; Conc. 10 % (vol/vol), 1 min): +
croissance ([3]; Conc. 10 % (vol/vol), 3 min): +
croissance ([3]; Conc. 10 % (vol/vol), 5 min): +
croissance ([3]; Conc. 10 % (vol/vol), 15 min): +
croissance ([3]; Conc. 10 % (vol/vol), 30 min): -
croissance ([3]; Conc. 10 % (vol/vol), 60 min): -
croissance ([3]; Conc. 25 % (vol/vol), 1 min): +
croissance ([3]; Conc. 25 % (vol/vol), 3 min): +
croissance ([3]; Conc. 25 % (vol/vol), 5 min): +
croissance ([3]; Conc. 25 % (vol/vol), 15 min): -
croissance ([3]; Conc. 25 % (vol/vol), 30 min): -
croissance ([3]; Conc. 25 % (vol/vol), 60 min): -
